Values joined by “and” are separate entries in the source; they are usually repeats but may differ in a detail not shown here. Equal values may be shown once.
Tested on: 565232-114-T-J1-PDC complex spheroid viability
Assay: Anticancer human tumor 565232-114-T-J1-PDC patient-derived bladder carcinoma cell line growth inhibition [CLK]
Details: for viability, T/C: stronger effect = lower value
Procedure, shortened: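 Patient-derived tumor cells grown as complex spheroids with HUVEC endothelial cells and mesenchymal stem cells, treated with drug combinations. Concentrations descend in half-log steps from near clinical Cmax, or from 10 microM if Cmax unknown.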

[1] = curve of first compound, second compound 0.0316 µM
[2] = curve of first compound, second compound 0.1 µM
[3] = curve of first compound, second compound 0.316 µM
[4] = curve of first compound, second compound 1 µM
[5] = curve of first compound, second compound 3.16 µM
[6] = curve of first compound, second compound 10 µM
[7] = second compound 0.0316 µM, first compound 0.0316 µM
[8] = second compound 0.0316 µM, first compound 0.1 µM
[9] = second compound 0.0316 µM, first compound 0.316 µM
[10] = second compound 0.0316 µM, first compound 1 µM
[11] = second compound 0.1 µM, first compound 0.0316 µM
[12] = second compound 0.1 µM, first compound 0.1 µM
[13] = second compound 0.1 µM, first compound 0.316 µM
[14] = second compound 0.1 µM, first compound 1 µM
[15] = second compound 0.316 µM, first compound 0.0316 µM
[16] = second compound 0.316 µM, first compound 0.1 µM
[17] = second compound 0.316 µM, first compound 0.316 µM
[18] = second compound 0.316 µM, first compound 1 µM
[19] = second compound 1 µM, first compound 0.0316 µM
[20] = second compound 1 µM, first compound 0.1 µM
[21] = second compound 1 µM, first compound 0.316 µM
[22] = second compound 1 µM, first compound 1 µM
[23] = second compound 3.16 µM, first compound 0.0316 µM
[24] = second compound 3.16 µM, first compound 0.1 µM
[25] = second compound 3.16 µM, first compound 0.316 µM
[26] = second compound 3.16 µM, first compound 1 µM
[27] = second compound 10 µM, first compound 0.0316 µM
[28] = second compound 10 µM, first compound 0.1 µM
[29] = second compound 10 µM, first compound 0.316 µM
[30] = second compound 10 µM, first compound 1 µM
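Further: spheroids exposed to compounds for 7 days before readout.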
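Wherever viability, T/C is given: 100% = DMSO vehicle wells with luminescence normalized to vehicle control.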

SMILES: Nc1ccccc1NC(=O)c1ccc(CNC(=O)OCc2cccnc2)cc1 + CN1CCN(c2cc(C(=O)Nc3cc4cc(-c5cnn(C)c5)ccc4cn3)ccn2)CC1
- IC50 [1]: 5260 nM
- IC50 [2]: 2660 nM
- IC50 [3]: < 31.6 nM
- IC50 [4]: < 31.6 nM
- IC50 [5]: < 31.6 nM
- IC50 [6]: < 31.6 nM
- viability, T/C [7]: 110%
- viability, T/C [8]: 108%
- viability, T/C [9]: 111%
- viability, T/C [10]: 100%
- viability, T/C (second compound 0.0316 µM, first compound 3.16 µM): 89.8%
- viability, T/C (second compound 0.0316 µM, first compound 10 µM): 1.38%
- viability, T/C [11]: 107%
- viability, T/C [12]: 93.5%
- viability, T/C [13]: 92.5%
- viability, T/C [14]: 89.9%
- viability, T/C (second compound 0.1 µM, first compound 3.16 µM): 42.9%
- viability, T/C (second compound 0.1 µM, first compound 10 µM): 0.29%
- viability, T/C [15]: 16.2%
- viability, T/C [16]: 23%
- viability, T/C [17]: 11.5%
- viability, T/C [18]: 9.54%
- viability, T/C (second compound 0.316 µM, first compound 3.16 µM): 2.07%
- viability, T/C (second compound 0.316 µM, first compound 10 µM): 0.07%
- viability, T/C [19]: 0.15%
- viability, T/C [20]: 1.24%
- viability, T/C [21]: 3.47%
- viability, T/C [22]: 0.16%
- viability, T/C (second compound 1 µM, first compound 3.16 µM): 1.45%
- viability, T/C (second compound 1 µM, first compound 10 µM): 0.11%
- viability, T/C [23]: 0.3%
- viability, T/C [24]: 3.93%
- viability, T/C [25]: 3.86%
- viability, T/C [26]: 0.23%
- viability, T/C (second compound 3.16 µM, first compound 3.16 µM): 0.19%
- viability, T/C (second compound 3.16 µM, first compound 10 µM): 0.18%
- viability, T/C [27]: 0.11%
- viability, T/C [28]: 0.5%
- viability, T/C [29]: 2.65%
- viability, T/C [30]: 0.16%
- viability, T/C (second compound 10 µM, first compound 3.16 µM): 0.94%
- viability, T/C (second compound 10 µM, first compound 10 µM): 0.18%

SMILES: CCc1c2c(nc3ccc(O)cc13)-c1cc3c(c(=O)n1C2)COC(=O)[C@]3(O)CC
- viability, T/C (compound 0.00316 µM): 91.1% and 106%
- viability, T/C (compound 0.01 µM): 76.9% and 89.2%
- viability, T/C (compound 0.0316 µM): 66.4% and 18%
- viability, T/C (compound 0.316 µM): 18.8% and 5.03%
- viability, T/C (compound 1 µM): 5.24% and 1.76%
- IC50 (curve of compound): 65.5 nM and 18.9 nM

SMILES: CCc1c2c(nc3ccc(O)cc13)-c1cc3c(c(=O)n1C2)COC(=O)[C@]3(O)CC + CNC(=O)c1ccc(Nc2nc(OC3CCCC3)c3c(-c4ccc5nc(C)oc5c4)c[nH]c3n2)c(OC)c1
- IC50 [1]: 8.14 nM
- IC50 [2]: < 3.16 nM
- IC50 [3]: < 3.16 nM
- IC50 [4]: < 3.16 nM
- IC50 [5]: < 3.16 nM
- IC50 [6]: < 3.16 nM
- viability, T/C (second compound 0.0316 µM, first compound 0.00316 µM): 103%
- viability, T/C (second compound 0.0316 µM, first compound 0.01 µM): 37.1%
- viability, T/C [7]: 16.6%
- viability, T/C [8]: 5.26%
- viability, T/C [9]: 3.13%
- viability, T/C [10]: 1.53%
- viability, T/C (second compound 0.1 µM, first compound 0.00316 µM): 33.4%
- viability, T/C (second compound 0.1 µM, first compound 0.01 µM): 17.9%
- viability, T/C [11]: 12.2%
- viability, T/C [12]: 3.99%
- viability, T/C [13]: 2.1%
- viability, T/C [14]: 1.61%
- viability, T/C (second compound 0.316 µM, first compound 0.00316 µM): 18.9%
- viability, T/C (second compound 0.316 µM, first compound 0.01 µM): 15.3%
- viability, T/C [15]: 8.99%
- viability, T/C [16]: 3.91%
- viability, T/C [17]: 1.28%
- viability, T/C [18]: 0.35%
- viability, T/C (second compound 1 µM, first compound 0.00316 µM): 14.7%
- viability, T/C (second compound 1 µM, first compound 0.01 µM): 13.8%
- viability, T/C [19]: 4.81%
- viability, T/C [20]: 4.56%
- viability, T/C [21]: 1.55%
- viability, T/C [22]: 0.71%
- viability, T/C (second compound 3.16 µM, first compound 0.00316 µM): 15.7%
- viability, T/C (second compound 3.16 µM, first compound 0.01 µM): 9.15%
- viability, T/C [23]: 5.68%
- viability, T/C [24]: 2.4%
- viability, T/C [25]: 1%
- viability, T/C [26]: 0.27%
- viability, T/C (second compound 10 µM, first compound 0.00316 µM): 17.3%
- viability, T/C (second compound 10 µM, first compound 0.01 µM): 12.9%
- viability, T/C [27]: 6.78%
- viability, T/C [28]: 3.12%
- viability, T/C [29]: 1.32%
- viability, T/C [30]: 2.51%

SMILES: O=c1[nH]cc(F)c(=O)[nH]1
- viability, T/C (compound 0.0316 µM): 91.2% and 106%
- viability, T/C (compound 0.1 µM): 80.1% and 80.5%
- viability, T/C (compound 0.316 µM): 80.7% and 124%
- viability, T/C (compound 1 µM): 88.1% and 93.1%
- viability, T/C (compound 3.16 µM): 134% and 80.6%
- viability, T/C (compound 10 µM): 131% and 71.9%
- IC50 (curve of compound): > 10000 nM
